Measurements taken from ChEMBL document CHEMBL5528058 (J Med Chem, 2024).
Calls of active or inactive are those of the source. No cut-off for these calls is given here.

Assays:
[1] = target: Programmed cell death protein 1/Programmed cell death 1 ligand 1 (Homo sapiens, UniProt Q9NZQ7)
Description: Inhibition of human PD-1/PD-L1 interaction by HTRF analysis

[2] = target: Programmed cell death protein 1 (Homo sapiens, UniProt Q15116); assay: Inhibition of human recombinant PD-1 by HTRF analysis
[3] = AUC (0 to infinity) in ICR mouse at 1 mg/kg, iv measured upto 24 hrs by LCMS analysis; type: ADME, organism-based; conditions: in vivo
[4] = AUC (0 to infinity) in ICR mouse at 10 mg/kg, IG measured upto 24 hrs by LCMS analysis; type: ADME, organism-based; conditions: in vivo, po
[5] = MRT (0 to t) in ICR mouse at 1 mg/kg, iv measured upto 24 hrs by LCMS analysis; type: ADME, organism-based; conditions: in vivo
[6] = target: Programmed cell death 1 ligand 1 (Mus musculus, UniProt Q9EP73); assay: Binding affinity to his-tagged mouse PD-L1 expressed in HEK293 cells assessed as dissociation constant by SPR analysis
Chain of Programmed cell death 1 ligand 1 (Q9EP73 whole entry): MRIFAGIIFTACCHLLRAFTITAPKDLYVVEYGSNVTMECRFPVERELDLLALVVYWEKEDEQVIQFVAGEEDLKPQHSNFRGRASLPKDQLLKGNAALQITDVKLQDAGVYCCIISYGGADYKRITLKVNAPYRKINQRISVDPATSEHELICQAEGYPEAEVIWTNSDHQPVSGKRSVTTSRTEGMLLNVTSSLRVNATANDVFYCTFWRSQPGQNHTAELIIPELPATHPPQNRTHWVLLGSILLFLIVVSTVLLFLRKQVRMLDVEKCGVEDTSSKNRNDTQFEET

[7] = test system: MDA-MB-231; assay: Antiproliferative activity against human MDA-MB-231 cells as cell killing incubated for 6 days by CCK-8 assay; conditions: MDA-MB-231, 144 h
[8] = test system: 4T1; assay: Antiproliferative activity against mouse 4T1 cells as cell killing incubated for 6 days by CCK-8 assay; conditions: 4T1, 144 h
[9] = test system: Jurkat; assay: Antiproliferative activity against human Jurkat cells as cell killing incubated for 6 days by CCK-8 assay; conditions: 144 h
[10] = test system: MDA-MB-231; assay: Induction of cell death in human MDA-MB-231 cells incubated for 6 days by CCK-8 assay; type: functional, cell-based; conditions: time 6.0 day
[11] = test system: PBMC; assay: Induction of cell death in human PBMC cells incubated for 6 days by CCK-8 assay; type: functional, cell-based; conditions: time 6.0 day
[12] = test system: MDA-MB-231; assay: Antitumor immunity activity against human MDA-MB-231 cells co-cultured with human PBMC assessed as cell killing incubated for 12 hrs; type: functional, cell-based
[13] = Half life in ICR mouse at 1 mg/kg, iv measured upto 24 hrs by LCMS analysis; type: ADME, organism-based; conditions: in vivo
[14] = Half life in ICR mouse at 10 mg/kg, IG measured upto 24 hrs by LCMS analysis; type: ADME, organism-based; conditions: in vivo, po
[15] = Tmax in ICR mouse at 10 mg/kg, IG measured upto 24 hrs by LCMS analysis; type: ADME, organism-based; conditions: in vivo, po
[16] = Cmax in ICR mouse at 10 mg/kg, IG measured upto 24 hrs by LCMS analysis; type: ADME, organism-based; conditions: in vivo, po
[17] = AUC (0 to t) in ICR mouse at 1 mg/kg, iv measured upto 24 hrs by LCMS analysis; type: ADME, organism-based; conditions: in vivo
[18] = AUC (0 to t) in ICR mouse at 10 mg/kg, IG measured upto 24 hrs by LCMS analysis; type: ADME, organism-based; conditions: in vivo, po
[19] = MRT (0 to t) in ICR mouse at 10 mg/kg, IG measured upto 24 hrs by LCMS analysis; type: ADME, organism-based; conditions: in vivo, po
[20] = MRT (0 to infinity) in ICR mouse at 1 mg/kg, iv measured upto 24 hrs by LCMS analysis; type: ADME, organism-based; conditions: in vivo
[21] = MRT (0 to infinity) in ICR mouse at 10 mg/kg, IG measured upto 24 hrs by LCMS analysis; type: ADME, organism-based; conditions: in vivo, po
[22] = Clearance in ICR mouse at 1 mg/kg, iv measured upto 24 hrs by LCMS analysis; type: ADME, organism-based; conditions: in vivo
[23] = Oral bioavailability in ICR mouse at 1 mg/kg measured upto 24 hrs by LCMS analysis; type: ADME, organism-based; conditions: in vivo
[24] = Acute toxicity in ICR mouse at 250 to 500 mg/kg, IG measured for 7 days; type: organism-based; conditions: in vivo, po, 168 h, dose 250-500 mg/kg, time 7 day
[25] = test system: 4T1; assay: Antitumor activity against mouse 4T1 cells implanted in BALB/c mouse assessed as tumor growth inhibition at 5 mg/kg, IG administered twice a day for 14 days; conditions: 4T1, po, 336 h, read-out: TGI
[26] = test system: 4T1; assay: Antitumor activity against mouse 4T1 cells implanted in BALB/c mouse assessed as tumor growth inhibition at 10 mg/kg, IG administered twice a day for 14 days; conditions: 4T1, po, 336 h, read-out: TGI
[27] = Toxicity in BALB/c mouse implanted with mouse 4T1 cells assessed as body weight loss at 5 to 10 mg/kg, IG administered twice a day for 14 days; type: organism-based; conditions: in vivo, po, 336 h, dose 5-10 mg/kg, time 14 day
[28] = Toxicity in BALB/c mouse implanted with mouse 4T1 cells assessed as side effect at 5 to 10 mg/kg, IG administered twice a day for 14 days; type: organism-based; conditions: in vivo, po, 336 h, dose 5-10 mg/kg, time 14 day
[29] = Toxicity in BALB/c mouse implanted with mouse 4T1 cells assessed as morphological changes in heart at 5 to 10 mg/kg, IG administered twice a day for 14 days by H and E staining based analysis; type: organism-based; conditions: in vivo, po, 336 h, dose 5-10 mg/kg, time 14 day
[30] = Toxicity in BALB/c mouse implanted with mouse 4T1 cells assessed as morphological changes in liver at 5 to 10 mg/kg, IG administered twice a day for 14 days by H and E staining based analysis; type: organism-based; conditions: in vivo, po, 336 h, dose 5-10 mg/kg, time 14 day
[31] = Toxicity in BALB/c mouse implanted with mouse 4T1 cells assessed as morphological changes in spleen at 5 to 10 mg/kg, IG administered twice a day for 14 days by H and E staining based analysis; type: organism-based; conditions: in vivo, po, 336 h, dose 5-10 mg/kg, time 14 day
[32] = Toxicity in BALB/c mouse implanted with mouse 4T1 cells assessed as morphological changes in lung at 5 to 10 mg/kg, IG administered twice a day for 14 days by H and E staining based analysis; type: organism-based; conditions: in vivo, po, 336 h, dose 5-10 mg/kg, time 14 day
[33] = Toxicity in BALB/c mouse implanted with mouse 4T1 cells assessed as morphological changes in kidney at 5 to 10 mg/kg, IG administered twice a day for 14 days by H and E staining based analysis; type: organism-based; conditions: in vivo, po, 336 h, dose 5-10 mg/kg, time 14 day
[34] = Toxicity in BALB/c mouse implanted with mouse 4T1 cells assessed as morphological changes in tumor at 5 to 10 mg/kg, IG administered twice a day for 14 days by H and E staining based analysis; type: organism-based; conditions: in vivo, po, 336 h, dose 5-10 mg/kg, time 14 day
[35] = test system: 4T1; assay: Antitumor activity against mouse 4T1 cells implanted in BALB/c mouse assessed as reduction in ki-67 expression at 10 mg/kg, IG administered twice a day for 14 days by immunohistochemistry analysis; type: functional, organism-based; conditions: time 14.0 day
[36] = test system: 4T1; assay: Antitumor activity against mouse 4T1 cells implanted in BALB/c mouse assessed as increase in percentage of CD3+ CD4+ cells in spleen at 15 mg/kg, ip qd administered for 14 days by flow cytometry analysis (reference value: 6.72%); type: functional; conditions: time 14 day
[37] = test system: 4T1; assay: Antitumor activity against mouse 4T1 cells implanted in BALB/c mouse assessed as increase in percentage of CD3+ CD8+ cells in spleen at 15 mg/kg, ip qd administered for 14 days by flow cytometry analysis (reference value: 3.34%); type: functional; conditions: time 14 day
[38] = test system: 4T1; assay: Antitumor activity against mouse 4T1 cells implanted in BALB/c mouse assessed as increase in percentage of CD3+ CD4+ cells in tumor at 15 mg/kg, ip qd administered for 14 days by flow cytometry analysis (reference value: 0.32%); type: functional; conditions: time 14 day
[39] = test system: 4T1; assay: Antitumor activity against mouse 4T1 cells implanted in BALB/c mouse assessed as increase in percentage of CD3+ CD8+ cells in tumor at 15 mg/kg, ip qd administered for 14 days by flow cytometry analysis (reference value: 0.64%); type: functional; conditions: time 14 day

Chain of Programmed cell death protein 1/Programmed cell death 1 ligand 1 (Q15116 whole entry): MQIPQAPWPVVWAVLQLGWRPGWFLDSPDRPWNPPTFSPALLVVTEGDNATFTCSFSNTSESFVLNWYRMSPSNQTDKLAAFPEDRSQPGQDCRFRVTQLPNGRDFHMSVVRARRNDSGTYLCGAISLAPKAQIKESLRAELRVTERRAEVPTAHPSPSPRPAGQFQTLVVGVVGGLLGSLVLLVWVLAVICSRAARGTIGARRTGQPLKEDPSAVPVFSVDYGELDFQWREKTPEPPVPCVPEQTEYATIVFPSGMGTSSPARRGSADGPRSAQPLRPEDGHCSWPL
Chain of Programmed cell death protein 1/Programmed cell death 1 ligand 1 (Q9NZQ7 whole entry): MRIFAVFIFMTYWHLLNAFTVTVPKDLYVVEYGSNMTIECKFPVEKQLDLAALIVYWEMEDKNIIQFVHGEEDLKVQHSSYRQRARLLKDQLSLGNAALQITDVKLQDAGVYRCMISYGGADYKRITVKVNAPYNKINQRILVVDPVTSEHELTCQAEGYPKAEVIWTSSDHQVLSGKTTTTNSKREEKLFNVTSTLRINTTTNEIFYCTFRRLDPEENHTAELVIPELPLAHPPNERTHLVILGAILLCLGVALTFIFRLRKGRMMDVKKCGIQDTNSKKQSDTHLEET
Chain of Programmed cell death protein 1 (Q15116 whole entry): as the sequence (Q15116 whole entry) above

O=C(Nc1cccc(-c2ccccc2F)c1Cl)c1ccc2c(n1)CCN(CCO)C2
IC50 [1]: 21.6 nM

O=C(Nc1cccc(-c2cccc(Cl)c2F)c1Cl)c1ccc2c(n1)CCN(CCO)C2
IC50 [1]: 24.2 nM

Cc1c(COc2ccc3c(n2)CCN(CCO)C3)cccc1-c1ccccc1Cl
IC50 [1]: 216 nM

COC(=O)CN1CCc2nc(OCc3cccc(-c4ccccc4F)c3Cl)ccc2C1
IC50 [1]: 369 nM

CCOC(=O)CN1CCc2nc(C(=O)Nc3cccc(-c4cccc(OC(C)C)c4F)c3Cl)ccc2C1
IC50 [1]: > 1000 nM

CCOC(=O)CN1CCc2nc(C(=O)Nc3cccc(-c4cccc(Cl)c4F)c3Cl)ccc2C1
IC50 [1]: > 1000 nM

Cc1c(Nc2nccc3cc(CN4CC[C@@H](O)C4)cnc23)cccc1-c1cccc(-c2nc3ccc(CN4CC[C@@H](C(=O)O)C4)c(C#N)c3o2)c1C
IC50 [2]: 3.1 nM

Cc1c(COc2ccc3c(n2)CCN(CCO)C3)cccc1-c1ccccc1F
IC50 [1]: 170 nM

OCCN1CCc2nc(OCc3cccc(-c4ccccc4Cl)c3F)ccc2C1
IC50 [1]: 101 nM

Cc1ccccc1-c1cccc(COc2ccc3c(n2)CCN(CCO)C3)c1C
IC50 [1]: 406 nM

CCOC(=O)CCN1CCc2nc(OCc3cccc(-c4ccccc4F)c3Cl)ccc2C1
IC50 [1]: 241 nM

CCOC(=O)C(C)N1CCc2nc(OCc3cccc(-c4ccccc4F)c3Cl)ccc2C1 (centres undefined)
IC50 [1]: 592 nM

OCCN1CCc2nc(OCc3cccc(-c4ccccc4Cl)c3Cl)ccc2C1
IC50 [1]: 95.1 nM

Cc1c(COc2ccc3c(n2)CCN(CCO)C3)cccc1-c1ccccc1
IC50 [1]: 227 nM

CCOC(=O)CN1CCc2nc(C(=O)Nc3cccc(-c4cccc(F)c4F)c3Cl)ccc2C1
IC50 [1]: 33800 nM

CCOC(=O)CN1CCc2nc(C(=O)Nc3cccc(-c4cccc(C#N)c4F)c3Cl)ccc2C1
IC50 [1]: > 1000 nM

CC(C)OC(=O)CN1CCc2nc(OCc3cccc(-c4ccccc4F)c3Cl)ccc2C1
IC50 [1]: 436 nM

CC(C(=O)O)N1CCc2nc(OCc3cccc(-c4ccccc4F)c3Cl)ccc2C1 (centres undefined)
IC50 [1]: 31.3 nM

N#Cc1cccc(-c2cccc(NC(=O)c3ccc4c(n3)CCN(CCO)C4)c2Cl)c1F
IC50 [1]: 58.8 nM

O=C(O)CN1CCc2nc(OCc3cccc(-c4ccccc4F)c3Cl)ccc2C1
AUC(0-inf) [3]: 1820 ng·h/mL
AUC(0-inf) [4]: 10500 ng·h/mL
MRT last at 24 h [5]: 3.7 h
Kd [6]: 392000 nM
IC50 [7]: 15400 nM
IC50 [8]: 77500 nM
IC50 [9]: 53900 nM
Activity [10]: Active
Activity [11]: Active
Activity [12]: Active
half-life [13]: 3.51 h
half-life [14]: 4.95 h
Tmax [15]: 0.25 h
Cmax [16]: 1950 ng/mL
AUC(0-t) at 24 h [17]: 1800 ng·h/mL
AUC(0-t) at 24 h [18]: 10200 ng·h/mL
MRT last at 24 h [19]: 6.05 h
MRT inf [20]: 3.86 h
MRT inf [21]: 7.35 h
clearance [22]: 9.55 mL/min/kg
bioavailability [23]: 58%
Activity [24]: Non-Toxic
inhibition in vivo at 5 mg/kg [25]: 49%
inhibition in vivo at 10 mg/kg [26]: 66%
Activity [27]: Non-Toxic
Activity [28]: Non-Toxic
Activity [29]: Non-Toxic
Activity [30]: Non-Toxic
Activity [31]: Non-Toxic
Activity [32]: Non-Toxic
Activity [33]: Non-Toxic
Activity [34]: Toxic
Activity [35]: Active

O=C(Nc1cccc(-c2cccc(F)c2F)c1Cl)c1ccc2c(n1)CCN(CCO)C2
IC50 [1]: 20.1 nM

NC(=O)CN1CCc2nc(OCc3cccc(-c4ccccc4F)c3Cl)ccc2C1
IC50 [1]: 157 nM

OCCN1CCc2nc(OCc3cccc(-c4ccccc4F)c3Cl)ccc2C1
IC50 [1]: 19.8 nM

COc1nc(OCc2cccc(-c3ccccc3)c2C)ccc1CNCCNC(C)=O
IC50 [7]: 19300 nM
IC50 [8]: 5200 nM
IC50 [9]: 4330 nM
Activity [36]: 5.4%
Activity [37]: 2.52%
Activity [38]: 0.58%
Activity [39]: 1.24%

OCCN1CCc2nc(OCc3cccc(-c4ccccc4F)c3F)ccc2C1
IC50 [1]: 105 nM

CC(C)Oc1cccc(-c2cccc(NC(=O)c3ccc4c(n3)CCN(CCO)C4)c2Cl)c1F
IC50 [1]: 83.5 nM
